Results: patent US9150510B2, “Amino acid derivative” (NIPPON ZOKI PHARMACEUTICAL CO., LTD., priority 2008, dated 2015)
Structures can show the parent of a compound that is named as a salt.

Key:
[1] = Test of blood kinetics in the rats; assay type: in vivo; conditions: rat, plasma, 2 mg/kg, fasted Wistar male rats, oral single dose of mixed solution of five compounds, each compound 2 mg/5 mL/kg, n=5, LC-MS; for AUC(0-inf): read-out: AUC0-∞ (area under the curve for concentration in blood, time 0 to infinite hours); for Cmax: read-out: Cmax (maximum concentration in plasma)
Protocol: Ten milligrams of a compound of the present invention was properly converted to a sodium salt with the same amount of sodium hydroxide, where necessary, and each was dissolved in 5 mL of water. Five compounds each among these aqueous solutions of the compounds of the present inventions were mixed, to prepare a mixed solution containing 0.4 mg/mL each of each compound. Six-week old Wistar SPF male rats that were fasted were orally administered with the mixed solution in a single dose using a gavage tube (each compound 2 mg/5 mL/kg, n=5). At time points of 0.25, 0.5, 1, 2, 4, and 8 hours after the administration, about 150 μL of blood was collected using a heparin-added capillary tube from veins of rat tails. The capillary tubes were centrifuged to collect the plasma. The plasma sample was deprotenized and the supernatant was diluted to prepare each of measurement sample solutions. The concentration of the compound of the present invention in each of measurement sample solutions was quantified using LC-MS, and Cmax (maximum concentration in plasma) and AUC (area under the curve for concentration in blood, time 0 to infinite (∞) hours) of the compounds of the present invention were calculated.

ddY-type mice = assay: Analgesic efficacy test (1): acetic acid writhing test (nociceptive pain model animal); assay type: in vivo; conditions: Mus musculus, 25 min, writhing number, male ddY mice, acetic acid i.p. 25 min after administration, mean ± standard error, read-out: Percent Suppression (%); for inhibition in vivo at 100 mg/kg: oral single dose 100 mg/kg; for inhibition in vivo at 10 mg/kg: oral single dose 10 mg/kg
From the text: A compound of the present invention was orally administered to mice, to carry out an analgesic efficacy test according to acetic acid writhing test (nociceptive pain model animal). As an experimental animal, 4-week old male ddY-type mice were previously bred, and thereafter 8 mice per one group were used in the experiment. A solution or suspension prepared by dissolving or suspending a compound of the present invention in a 0.5% (w/v) aqueous CMC-Na solution was orally administered as a test substance in a single dose. While, to a control group, a 0.5% (w/v) aqueous CMC-Na solution was administered in the same manner. After 25 minutes from administration, the mice were intraperitoneally administered with a 0.7% (v/v) acetic acid/physiological saline at the dose of 10 mL/kg. From 5 minutes thereafter, writhing number in a 10-minute period was counted, and a suppressive rate for each individual (mean±standard error) was calculated by the following formula: […]
In the test for significance difference, Baltlett's test was carried out in the comparison between multiple groups of the group administered with test substance with the control group. In the case of homoscedasticity, Dunnett's multiple comparison test of parametrics, and in the case of heteroscedasticity, Dunnett's multiple comparison test of non-parametrics were used. In addition, in the test of dose dependency, Jockheere-Terpstra's test was used. In all cases, significance difference was considered to be found at P<0.05.

Chung model rat = assay: Analgesic efficacy test (2): Chung model rat, neuropathic pain model (allodynia, von Frey filament); assay type: in vivo; conditions: Table 13, Wistar male rats, L5 spinal nerve ligation, mean ± standard error
Protocol: An analgesic efficacy test was conducted using a Chung model rat, a neuropathic pain model. Using Wistar male rats after passing 9-week old as an experimental animal, a model rat was prepared in accordance with the method of Kim and Chung (Pain, 50, 355-363, 1992). Specifically, left L5 spinal nerves of rats were exposed under anesthetization with pentobarbital (35 mg/kg, intraperitoneal administration), and firmly ligated with 5-0 silk yarn at L5 dorsal root ganglion peripheral side. The animals were placed in a transparent acrylic cage of which bottom was wire netted The measurement of allodynia was carried out using von Frey filament (manufactured by North Coast Medical Inc.) and a 50% reaction threshold was calculated according to an up-down method, in accordance with methods of Chaplan et al. (J. Neurosci. Method, 53, 55-63, 1994) and Lee et al. (J. Neurophysiol., 81, 2226-2233, 1999). The 50% reaction thresholds were measured twice before injury of the spinal nerve, and those animals of which thresholds were outside the standard were removed from the operation of spinal nerve injury. On or after 14 days from the spinal nerve injury, a 50% reaction threshold was measured, and those showing thresholds of 1 g or more and less than 4 g were used as experimental animal. The group was constituted by 7 rats per group so that an average of a 50% reaction threshold for each group would be nearly even.
A solution or suspension prepared by dissolving or suspending a compound of the present invention in a 0.5% (w/v) aqueous CMC-Na solution was orally administered as a test substance in a single dose while, a 0.5% (w/v) aqueous CMC-Na solution was administered in the same manner to the control group for nerve injury. After 30 minutes from the administration, the measurement of allodynia was carried out, and a 50% reaction threshold (mean±standard error) was calculated. In the test for significance difference, Baltlett's test was carried out in the comparison between multiple groups of the group administered with test substance with the control group for nerve injury. In the case of homoscedasticity, Dunnett's multiple comparison test of parametrics, and in the case of heteroscedasticity, Dunnett's multiple comparison test of non-parametrics were used. In all cases, significance difference was considered to be found at P<0.05.

| melting point | AUC(0-inf) [1] | Cmax [1] | SMILES | 50% Reaction Threshold (g), Group Administered with Test Substance, 30 Min. After Administration (Chung model rat; oral single dose 10 mg/kg) | also measured |
| --- | --- | --- | --- | --- | --- |
| 140 to 141 °C | – | – | O=C(C=Cc1ccc(F)cc1)N[C@@H](Cc1c[nH]c2ccccc12)C(=O)O (as salt: sodium) [Compound 5, N^α-[3-(4-Fluorophenyl)acryloyl]-L-tryptophan] | – | – |
| 150 to 151 °C | – | – | C=CC(=O)N[C@@H](Cc1c[nH]c2ccccc12)C(=O)O (as salt: sodium) [Compound 1, N^α-Acryloyl-L-tryptophan] | – | – |
| 172 to 173 °C | – | – | O=C(C=Cc1ccccc1O)N[C@@H](Cc1c[nH]c2ccccc12)C(=O)O (as salt: sodium) [Compound 2, N^α-[3-(2-Hydroxyphenyl)acryloyl]-L-tryptophan] | – | – |
| 124 to 125 °C | – | – | N#Cc1ccccc1C=CC(=O)N[C@@H](Cc1c[nH]c2ccccc12)C(=O)O (as salt: sodium) [Compound 9, N^α-[3-(2-Cyanophenyl)acryloyl]-L-tryptophan] | – | – |
| 163 to 164 °C | – | – | O=C(C=Cc1cccc(O)c1)N[C@@H](Cc1c[nH]c2ccccc12)C(=O)O (as salt: sodium) [Compound 6, N^α-[3-(3-Hydroxyphenyl)acryloyl]-L-tryptophan] | – | – |
| 158 to 159 °C | – | – | O=C(C=Cc1ccc(O)cc1)N[C@@H](Cc1c[nH]c2ccccc12)C(=O)O (as salt: sodium) [Compound 7, N^α-[3-(4-Hydroxyphenyl)acryloyl]-L-tryptophan] | – | – |
| – | 19400 ng·h/mL | 2800 ng/mL | O=C(C=Cc1cc(F)ccc1F)N[C@@H](Cc1c[nH]c2ccccc12)C(=O)O [Compound 15, N^α-[3-(2,5-Difluorophenyl)acryloyl]-L-tryptophan] | 9.12 ± 1.55 g | inhibition in vivo at 100 mg/kg (ddY-type mice): 61.3 ± 9.9% |
| – | 24200 ng·h/mL | 7100 ng/mL | C=CC(=O)N[C@@H](Cc1c[nH]c2ccccc12)C(=O)O [Compound 1, N^α-Acryloyl-L-tryptophan] | 11.18 ± 1.74 g | inhibition in vivo at 10 mg/kg (ddY-type mice): 25.7 ± 6.3% |
| – | 14600 ng·h/mL | 2300 ng/mL | O=C(C=Cc1ccc(F)cc1)N[C@@H](Cc1c[nH]c2ccccc12)C(=O)O [Compound 5, N^α-[3-(4-Fluorophenyl)acryloyl]-L-tryptophan] | 6.87 ± 1.28 g | inhibition in vivo at 10 mg/kg (ddY-type mice): 51.3 ± 10.9% |
| – | 46300 ng·h/mL | 7400 ng/mL | O=C(C=Cc1c(F)cccc1F)N[C@@H](Cc1c[nH]c2ccccc12)C(=O)O [Compound 13, N^α-[3-(2,6-Difluorophenyl)acryloyl]-L-tryptophan] | 9.94 ± 1.56 g | inhibition in vivo at 10 mg/kg (ddY-type mice): 52.9 ± 7.7% |
| – | 8500 ng·h/mL | 2800 ng/mL | C=CC(=O)N[C@@H](Cc1ccc(OC)cc1)C(=O)O [Compound 38, N-Acryloyl-O^4-methyl-L-tyrosine] | – | inhibition in vivo at 100 mg/kg (ddY-type mice): 52 ± 8.2%; 50% Reaction Threshold (g), Group Administered with Test Substance, 30 Min. After Administration (Chung model rat; oral single dose 1 mg/kg): 5.44 ± 0.75 g |
| 104 to 105 °C | 26200 ng·h/mL | 5800 ng/mL | O=C(C=Cc1ccccc1F)N[C@@H](Cc1c[nH]c2ccccc12)C(=O)O [Compound 3, N^α-[3-(2-Fluorophenyl)acryloyl]-L-tryptophan] | – | inhibition in vivo at 3 mg/kg (ddY-type mice; oral single dose 3 mg/kg): 36.9 ± 10.6% |
